System: green peach apid (Myzus persicae)
Experiment: Myzus test (cabbage leaves dipped)
Type: in vivo
Details: after 6 days; active compound concentration 0.1%
Description: Solvent: 7 parts by weight of dimethylformamide
Emulsifier: 1 part by weight of alkylaryl polyglycol ether
To produce a suitable preparation of active compound, 1 part by weight of active compound is mixed with the stated amount of solvent and the stated amount of emulsifier, and the concentrate is diluted with water to the desired concentration.
Cabbage leaves (Brassica oleracea) which are severely infested with the green peach apid (Myzus persicae) are treated by being dipped into the preparation of active compound of the desired concentration.
After the specified periods of time, the destruction in % is determined. 100% means that all the aphids have been killed; 0% means that none of the aphids have been killed.

Row | SMILES | destruction rate
1 | Cc1cc(C)c(C2=C(O)C3(CCCCC3)NC2=O)c(C)c1 [(A)] | no destruction
2 | CC(C)C(=O)OC1=C(c2ccc(Cl)cc2Cl)C(=O)NC12CCCCC2 [(B)] | 20%
